Here are results for six compounds from patent US9523693B2, “Methods for determining ligand binding to a target protein using a thermal shift assay” (Biotarget Engagement Interest Group AB, priority 2011, dated 2016).

The target of assay [1] is T1, methionine-aminopeptidase-2 (Bos taurus, UniProt Q3ZC89).
T1 construct: Lysate was prepared for cultured human cells (K562) and cow liver samples; from tissue; host or cells: cow liver
Description: Thermal shift in cow liver lysate, Western blot. It counts as binding. The procedure:
(§1) Studies were done on cells from two different systems: a) intact cow liver biopsies incubated with TNP-470 and b) human cultured cells incubated with TNP-470. […] After treatment with or without the inhibitor, the samples were prepared and subjected to an array of increasing temperatures. The precipitated protein fraction was pelleted by means of centrifugation and the supernatant from each temperature step was analysed on gels and by Western blot. Melting temperatures of proteins treated with TNP-470 were compared to those of untreated samples.
(§2) Lysate was prepared for cultured human cells (K562) and cow liver samples by disruption on ice in hypotonic buffer and with homogenisation. The suspensions were freeze-thawed multiple times and all insoluble aggregates and cell debris were pelleted by centrifugation after completed lysis. The lysate of each cell type was divided into two aliquots, where one was supplemented with TNP-470 (dissolved in pure DMSO) and the other with an equivalent volume of pure DMSO. […]
(§3) Next, a series of temperatures were applied to different samples ranging between +56° C. to +88° C. with 2 or 4° C. increments and a 3 minute hold at each step. […] The signal from the bound secondary antibody was detected by chemiluminescense and recorded with a CCD camera. […]
Background: Immunoblotting shows a protein as a band on a membrane.

The target in assay [2] is methionine-aminopeptidase-2 (Homo sapiens, UniProt P50579). Description: Thermal shift in human K562 cell lysate, Western blot. It counts as binding. The procedure: as §1, §2, §3
Chain of methionine-aminopeptidase-2 (Homo sapiens, UniProt P50579) (P50579 whole entry): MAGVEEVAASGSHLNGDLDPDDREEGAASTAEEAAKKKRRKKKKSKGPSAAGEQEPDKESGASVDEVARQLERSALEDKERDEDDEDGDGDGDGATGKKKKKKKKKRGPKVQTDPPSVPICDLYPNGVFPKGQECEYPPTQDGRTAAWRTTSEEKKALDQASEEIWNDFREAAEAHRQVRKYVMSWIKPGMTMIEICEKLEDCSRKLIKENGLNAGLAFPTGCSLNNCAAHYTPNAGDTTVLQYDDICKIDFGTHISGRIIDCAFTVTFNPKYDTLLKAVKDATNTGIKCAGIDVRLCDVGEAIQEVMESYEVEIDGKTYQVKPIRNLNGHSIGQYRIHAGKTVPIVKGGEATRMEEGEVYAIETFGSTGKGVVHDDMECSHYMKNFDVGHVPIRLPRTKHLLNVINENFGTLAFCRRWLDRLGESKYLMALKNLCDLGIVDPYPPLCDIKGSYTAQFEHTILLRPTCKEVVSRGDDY
Assay [3] addresses T2, p38α (Homo sapiens, UniProt Q16539).
T2 construct: host or cells: HL-60
Description: Homogeneous AlphaScreen-based CETSA screen in HL-60 cells. It counts as cell-based. The settings on record: both screen concentrations, 10 and 50 μM, 50° C. 3 min.
Description: HL-60 cells were expanded in cell culture medium to a density of approximately 1.5-2 million cells/ml. The cell suspension was collected and the cells transferred to 15 ml conical tubes. The tubes were then centrifuged at 300 g for 3 mins at room temperature and the media was discarded. The cell pellet was resuspended in media to a cell density of about 30 million cells/ml. […] The plates are sealed and stored. The Echo 550 acoustic liquid dispenser was used to place 20 nl of the 10 mM DMSO stock solution in each well of four separate Twin tec PCR plates in columns 1-11. […] The plates were shaken every 10 mins.
The plates were placed in a thermal cycler and heated for 3 mins at 50° C. and were then removed and placed in an aluminium block for 3 mins at room temperature.
140 μl of 1× PerkinElmer lysis buffer was added to all wells and the wells were mixed. 4 μl of the samples were transferred to quadrant one of the 384-well ProxiPlate. This was done for all 96-well plates. […] The chemiluminescence was read with a Envision plate reader and evaluated using data processing software as described previously.
The feasibility of applying the homogeneous assay for screen purposes was assessed by testing the homogeneous assay protocol to determine how this responds to the presence of a small set of test compounds taken from a diversity library. […]

Assay [4] deals with T2, p38α. Description: CETSA melting curve in HL-60 cells. The settings on record: for apparent Tagg value (average±s.d.): 20 μM compound. It counts as cell-based.
Description: HL60 cells were expanded in cell culture medium to about 2 million cells per ml, where approximately 120 million cells were required to determine four melting curves. 15 ml of the 2 million HL60 cells/ml of suspension were added to four separate T75 flasks. […] The same volume of DMSO was added to the remaining flask as a control. The cell suspensions were mixed gently by pipetting. […] The cell suspension was then collected and cells were transferred to 15 ml conical tubes. Cell numbers were counted and cell viability assessed. The conical tubes were then centrifuged at 300 g for 3 minutes at room temperature to pellet the cells and the culture medium was discarded.
Cell pellets were then resuspended with 15 ml PBS and centrifuged for 3 minutes at 300 g at room temperature. 1 ml of PBS supplemented with protease inhibitors was added to each tube and the pellet resuspended. Each cell suspension was distributed into ten different 0.2 ml PCR tubes with 100 μl of cell suspension in each tube, with each of the ten tubes to be heated at a different temperature.
Immediately after hating, the tubes were removed and incubated at room temperature for 3 minutes. The samples were then snap-frozen.
The tubes were vortexed after being thawed and the cell lysates kept on ice after the last thawing. The cell lysates were then centrifuged at 20000 g for 20 minutes at 4° C. to pellet the cell debris. Finally, 90 μl of lysate was then transferred to a new tube for analysis.
Analysis was carried out using the alphascreen format. […] 4 μl of each solution was transferred from the PCR tubes to a separate well of a 384-well ProxiPlate. 5 μl of acceptor beads were added and the plate sealed with a Thermowell plate seal and agitated for 5 minutes at 500 rpm. The plate was then incubated for 2 hours at room temperature. 2 μl of donor beads were then added an the plate sealed and centrifuged at 100 g at room temperature for 10 seconds. The plate was then agitated for 5 minutes at 500 rpm. The plate was incubated at room temperature for at least 2 hours and chemiluminescence read using an Envision plate reader. […]
Assay [5] deals with T3, thymidylate synthase (TS) (Homo sapiens, UniProt P04818).
T3 construct: Lysate was prepared from cultured human adenocarcinoma cells (A549); endogenous in cells; host or cells: A549
T3 sequence (P04818 2-313 limits assumed): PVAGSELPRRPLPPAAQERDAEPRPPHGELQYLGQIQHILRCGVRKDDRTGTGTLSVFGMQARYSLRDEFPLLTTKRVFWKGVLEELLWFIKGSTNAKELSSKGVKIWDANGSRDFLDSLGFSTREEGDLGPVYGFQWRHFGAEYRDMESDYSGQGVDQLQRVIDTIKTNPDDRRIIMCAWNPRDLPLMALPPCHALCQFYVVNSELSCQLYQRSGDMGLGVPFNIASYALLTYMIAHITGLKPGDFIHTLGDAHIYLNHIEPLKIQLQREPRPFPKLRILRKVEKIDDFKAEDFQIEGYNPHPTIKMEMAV
Description: Thermal shift in A549 cell lysate, Western blot, TS. It counts as binding. The settings on record: ligand at 10 times the described IC50. The source says:
Cells were disrupted on ice in hypotonic buffer and with homogenisation. The suspensions were freeze-thawed multiple times and all insoluble aggregates and cell debris were pelleted by centrifugation after completed lysis.
The signal from the bound secondary antibody was detected by chemiluminescense and recorded with a CCD camera. The intensities were plotted to visualize the changes in melting temperature following ligand treatment.

The next assay deals with wild-type B-raf protein (Homo sapiens, UniProt P15056). The following applies: K562 lysate. Here is the method: (§4) Lysate was prepared from cultured human A375 cells containing the V600E substitution in B-raf and K562, containing the wild type version thereof. Cells were disrupted on ice in hypotonic buffer and with homogenisation. The suspensions were freeze-thawed multiple times and all insoluble aggregates and cell debris were pelleted by centrifugation after completed lysis. The supernatants containing optically clear cytosolic fraction were each aliquoted into two tubes where each tube contained either the ligand SB590885 dissolved in DMSO or pure DMSO for control. The samples were incubated and subsequently aliquoted into 8-tube PCR strips in fractions of 50 microliters. A series of temperatures were applied to the different samples ranging between +44° C. to +62° C. with 2° C. increments and a 3 minute hold at each temperature. Following heating, the samples were cooled and the precipitated protein pelleted by centrifugation. 20 microliter of each supernatant was removed and supplemented with gel loading buffer and fully denatured by heating. The samples were loaded on a separating gel, which after full run time was blotted onto a nitrocellulose membrane. The membrane was washed and blocked with blocking reagent and probed with primary and secondary antibodies. The signal from the bound secondary antibody was detected by chemiluminescense and recorded with a CCD camera. […]
Chain of wild-type B-raf protein (P15056 whole entry): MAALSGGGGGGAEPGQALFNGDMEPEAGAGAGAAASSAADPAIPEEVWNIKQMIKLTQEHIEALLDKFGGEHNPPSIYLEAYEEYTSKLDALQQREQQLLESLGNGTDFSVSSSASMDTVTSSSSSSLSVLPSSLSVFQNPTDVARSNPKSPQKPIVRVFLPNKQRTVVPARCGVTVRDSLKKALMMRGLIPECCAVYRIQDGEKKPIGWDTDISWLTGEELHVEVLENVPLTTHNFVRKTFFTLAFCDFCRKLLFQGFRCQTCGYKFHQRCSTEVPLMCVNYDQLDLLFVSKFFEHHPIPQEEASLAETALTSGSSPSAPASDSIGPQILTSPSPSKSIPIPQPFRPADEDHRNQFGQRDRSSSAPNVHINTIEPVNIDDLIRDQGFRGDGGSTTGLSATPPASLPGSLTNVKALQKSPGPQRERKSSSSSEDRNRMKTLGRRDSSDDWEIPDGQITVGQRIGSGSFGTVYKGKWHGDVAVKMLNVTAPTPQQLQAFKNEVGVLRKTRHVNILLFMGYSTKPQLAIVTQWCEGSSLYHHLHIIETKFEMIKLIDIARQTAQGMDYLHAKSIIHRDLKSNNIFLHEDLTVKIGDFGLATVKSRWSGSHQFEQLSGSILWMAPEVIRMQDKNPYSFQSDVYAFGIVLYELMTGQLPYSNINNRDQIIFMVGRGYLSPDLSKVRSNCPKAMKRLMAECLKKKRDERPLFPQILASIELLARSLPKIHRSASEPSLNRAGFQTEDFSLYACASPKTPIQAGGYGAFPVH

Assay [6] addresses V600E variant B-raf protein (Homo sapiens, UniProt P15056, V600E). The settings on record: A375 lysate. The procedure: as §4
Assay [7] deals with T4, human soluble PIK3C3 protein (Homo sapiens, UniProt Q8NEB9).
T4 construct: expressed in transfected cells; host or cells: E. coli
T4 sequence (Q8NEB9 whole entry): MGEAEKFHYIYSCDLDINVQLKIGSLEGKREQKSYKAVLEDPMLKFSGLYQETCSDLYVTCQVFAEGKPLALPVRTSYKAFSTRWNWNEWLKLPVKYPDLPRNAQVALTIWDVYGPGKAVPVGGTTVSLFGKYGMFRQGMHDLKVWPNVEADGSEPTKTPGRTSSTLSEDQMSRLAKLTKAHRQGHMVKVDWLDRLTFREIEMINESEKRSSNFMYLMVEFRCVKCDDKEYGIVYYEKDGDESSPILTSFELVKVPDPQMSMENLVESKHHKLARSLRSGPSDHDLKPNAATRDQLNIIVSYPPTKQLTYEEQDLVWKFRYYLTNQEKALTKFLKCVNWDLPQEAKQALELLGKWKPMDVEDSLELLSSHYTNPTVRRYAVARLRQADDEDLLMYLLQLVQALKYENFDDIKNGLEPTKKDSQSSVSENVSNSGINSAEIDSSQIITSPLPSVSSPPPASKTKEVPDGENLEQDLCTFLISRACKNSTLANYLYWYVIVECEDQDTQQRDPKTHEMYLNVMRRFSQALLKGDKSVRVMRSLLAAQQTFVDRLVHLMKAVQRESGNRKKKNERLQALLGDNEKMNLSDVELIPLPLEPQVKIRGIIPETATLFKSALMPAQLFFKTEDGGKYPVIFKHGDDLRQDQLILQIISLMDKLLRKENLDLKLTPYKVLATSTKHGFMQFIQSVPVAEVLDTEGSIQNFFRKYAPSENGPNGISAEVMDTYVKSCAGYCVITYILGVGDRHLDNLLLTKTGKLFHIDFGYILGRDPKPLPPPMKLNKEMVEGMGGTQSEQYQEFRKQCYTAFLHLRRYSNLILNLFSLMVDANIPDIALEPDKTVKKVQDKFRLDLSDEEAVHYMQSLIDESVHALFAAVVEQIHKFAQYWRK
Description: Thermal shift (lysis/filtration blot) in E. coli cells overexpressing PIK3C3 construct. It counts as cell-based. The following applies: 1 mM Compound 15e or 500 μM Wortmannin, without ligand ca +55°. The text has this:
An expression construct of human soluble PIK3C3 protein in an expression vector with N-terminal His-tag was used to investigate a possible increase in melting temperature of the PIK3C3 construct after addition and binding of either of two PIK3C3 specific inhibitors; Wortmannin and Compound 15e. After treatment with or without one of the two inhibitors the cells expressing the PIK3C3 constructs were exposed to a panel of increasing temperatures and after each temperature step the cells expressing the proteins were spotted onto a “lysis/filtration sandwich” soaked in lysis buffer. By using this lysis/filtration step on the “lysis/filtration sandwich” the soluble protein (up to the construct's specific melting temperature) could be detected on a capturing nitrocellulose membrane as dark spots, whereas precipitated protein (i.e., above its specific melting temperature) was not able to pass through the filter membrane and could therefore not be detected. Melting temperatures of constructs treated with Compound 15e or Wortmannin were compared with those of untreated samples. […]

The target of assay [8] is T2, p38α. Description: Isothermal dose-response fingerprint (ITDRF CETSA) in HL-60 cells. It counts as cell-based. The settings on record: HL-60 cells heated at 50° C.; western blot and AlphaScreen.
Description: Thus, in this method, HL-60 cells were expanded in cell culture medium to a cell density of 1-2 million cells/ml using standard cell culture. The cell suspension was collected and transferred to 15 ml conical tubes. The conical tubes were centrifuged at 300 g for 3 minutes at room temperature and the medium discarded. The cell pellet was resuspended in fresh media to provide a cell density of approximately 40 million cells/ml. […] 100 DMSO was placed in columns 2-12. The stock solutions were serially diluted by transferring 50 from columns 1 to 2, mixing and then by continuing this process one column at a time until column 11, where a final 50 is removed and discarded. Column 12 acted as a control. A second plate was prepared as a backup by splitting the serial dilutions into the second plate. All the serially diluted solutions were diluted 50 fold by adding cell culture media. 5 μl of all diluted compound solutions were then transferred to a Twin.tec PCR plate. […] The plate was shaken every 10 minutes.
The PCR plate was then incubated in a thermal cycler (Techne) and heated for 3 minutes at 50° C. The plate was then placed in an aluminium block for 3 minutes to ensure consistent cooling.
Detection was then carried out using the AlphaScreen method. […] The Luminescence was read using an Envision plate reader and data software (e.g. GraphPad Orism) was used to evaluate the luminescence data. […]

T2 sequence (Q16539 whole entry): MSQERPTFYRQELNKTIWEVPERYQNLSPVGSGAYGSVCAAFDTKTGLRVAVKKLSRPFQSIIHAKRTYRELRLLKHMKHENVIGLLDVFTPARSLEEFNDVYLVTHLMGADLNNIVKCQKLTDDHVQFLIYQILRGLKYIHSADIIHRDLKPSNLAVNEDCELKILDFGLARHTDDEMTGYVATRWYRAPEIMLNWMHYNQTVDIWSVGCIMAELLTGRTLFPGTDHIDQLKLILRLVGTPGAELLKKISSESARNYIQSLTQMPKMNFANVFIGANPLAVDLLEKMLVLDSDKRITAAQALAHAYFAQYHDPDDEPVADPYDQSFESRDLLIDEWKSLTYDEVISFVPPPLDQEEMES
T1 sequence (Q3ZC89 whole entry): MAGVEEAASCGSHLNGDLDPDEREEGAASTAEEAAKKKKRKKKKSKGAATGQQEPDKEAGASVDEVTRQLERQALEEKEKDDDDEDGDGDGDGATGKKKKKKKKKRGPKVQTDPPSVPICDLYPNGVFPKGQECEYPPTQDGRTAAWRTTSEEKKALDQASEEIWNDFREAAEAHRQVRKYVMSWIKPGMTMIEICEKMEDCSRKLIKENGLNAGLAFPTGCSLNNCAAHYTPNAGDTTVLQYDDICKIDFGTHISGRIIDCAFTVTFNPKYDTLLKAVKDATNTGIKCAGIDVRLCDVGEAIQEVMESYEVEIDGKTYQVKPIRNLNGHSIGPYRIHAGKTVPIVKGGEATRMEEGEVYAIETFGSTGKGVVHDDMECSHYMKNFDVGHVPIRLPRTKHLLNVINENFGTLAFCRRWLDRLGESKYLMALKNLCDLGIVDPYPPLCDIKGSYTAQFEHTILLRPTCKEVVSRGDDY
Chain of V600E variant B-raf protein (P15056 whole entry V600E): as the sequence (P15056 whole entry) above, with V600E counted along it

As for `CO[C@@H]1[C@H](OC(=O)NC(=O)CCl)CC[C@]2(CO2)[C@H]1[C@@]1(C)O[C@@H]1CC=C(C)C` [TNP-470], the figures for the “shift in melting temperature” value in assay [1] and in [2] were 14 ° and 18 °C, respectively. In addition, the “melting temperature after addition of ligand” value in [1] (without ligand 66° C.) and in assay [2] (without ligand 62° C.) was 80 °C each time.
For `Cn1c(NC[C@@H](N)Cc2ccccc2)nc(-c2ccncc2)c(-c2ccc3ccccc3c2)c1=O` [AMG-548], the “screen outcome (increase of the AlphaScreen signal vs DMSO-only controls)” value at p38α [3] is “stabilizing hits”. Also, the “apparent Tagg value (average±s.d.)” value at p38α [4] (AlphaScreen detection, no inhibitor 46.7±0.7) was found to be 59.2±0.9 °C; on p38α [4] (western blot detection, no inhibitor 48±0.8), 60.6±1.0 °C.
Take `Cc1nc2ccc(CN(C)c3ccc(C(=O)N[C@@H](CCC(=O)O)C(=O)O)s3)cc2c(=O)[nH]1` [raltitrexed]: the “change of melting temperature of TS” value in [5] was “increased melting temperature”.
For `CN(C)CCOc1ccc(-c2nc(-c3ccncc3)c(-c3ccc4c(c3)CC/C4=N\O)[nH]2)cc1` [SB590885], the “increase in the melting temperature” value on wild-type B-raf protein was 3 °C; in assay [6], roughly 6 °C.
As for `Oc1cccc(-c2nc(N3CCOCC3)c3sccc3n2)c1` [Compound 15e, 3-[4-(4-Morpholinyl)thieno[3,2-d]pyrimidin-2-yl]-phenol], the “melting temperature after addition of inhibitor” value in assay [7] was roughly 58 °C.
In the case of `Cc1cnc(Nc2ccc(F)cc2Cl)nc1-c1c[nH]c(C(=O)N[C@H](CO)c2cccc(Cl)c2)c1` [ERK 11e], at p38α [3], the “screen outcome (increase of the AlphaScreen signal vs DMSO-only controls)” value was “cannot be distinguished from the rest of the inactive compounds”. At p38α [8], the “thermal stabilization of p38α within the tested concentration range” value is “did not result in any stabilization”. Further, the “shift of the apparent Tagg (response)” value on p38α [4] (20 μM) was “lack of a substantial response”.
